Measured values taken from patent publication US6596854B2, “Isolated nucleic acid molecule encoding a variant human eukaryotic Intiation Factor 4E protein” (Emory University, priority 1996, dated 2003).
Entries after “also recorded” stand apart in the source; their conditions may differ.

What was measured:
[1] = system: translation of globin mRNA; test: Cell-free translation in eIF-4E-depleted rabbit reticulocyte lysates; assay type: biochemical
Protocol: Translational activity of eIF-4E variants: The ability of eIF-4E variants to initiate translation was examined in rabbit reticulocyte lysates which were depleted of endogenous eIF-4E by m^7GTP-Sepharose chromatography [Svitkin Y. V. et al. (1996) EMBO J. 15:7147-7155]. Western blotting analysis using anti-eIF-4E antibodies detected no eIF-4E in lysates after chromatography. […] The relative abilities of eIF-4E variants to restore globin mRNA translation were tested for all variants except W113A.
Cell-free translations: Nuclease-treated rabbit reticulocyte lysates (Promega) were depleted of endogenous eIF-4E by chromatography on m^7GTP-Sepharose according to the previously described protocol (Svitkin et al. 1996, supra). Aliquots of eIF-4E-depleted lysates were stored in liquid nitrogen vapor. eIF-4E depletion was verified by Western blotting analysis (data not shown). Cell-free translations were performed at 30° C. as described in detail in the Promega technical manual. […] In the case of L117A, which was not highly purified, a sufficient quantity of the preparation was added to approximate 75 ng of L117A. […] Dried filter papers were placed in vials with scintillation liquid and [^35S]methionine incorporated into protein was quantitated by liquid scintillation spectrometry.

eIF-4E = biological target: T1, eIF-4E (Homo sapiens, UniProt P06730); test: Photoaffinity labeling of eIF-4E with labeled GTP analog; assay type: binding; conditions: competition and saturation
T1 construct: made in house; host or cells: E. coli BL21(DE3), pET-3d
Description: Studies on the binding site of eIF-4E have defined a sequence of amino acids, involved in binding m^7G-RNA extending approximately from positions 112-123, numbering from the translation start site. The region of amino acids involved in the binding of eIF-4E to m^7G-RNA was identified using photoaffinity labeling with a labeled analog, [γ-^32P] 8-N3GTP. [Jayaram, B. et al. (1994) J. Biol. Chem. 269:3233-3242; Shoemaker, M. T. et al. (1993) J. Biol. Chem. 32:1883-1890; Salvucci, M. E. et al. (1992) Biochemistry 31:4479-4487]. […] The analog binding to eIF-4E was rendered irreversible by a photo-chemical reaction and a tryptic peptide bearing the analog label was isolated by aluminum-III chelate chromatography and reverse phase HPLC. Once the binding region peptide was identified, it was then possible to employ alanine-scanning mutations to determine the contribution of specific amino acid residues to the binding, and to generate modified eIF-4E proteins with altered binding affinities. Modified eIF-4E analog proteins having either increased or decreased binding affinities have been made. […] Enhanced binding affinity can lead to increased capped RNA stability and increased duration of expression. Decreased binding affinity can be of value where sensitivity to regulatory influences is desired. […]

[2] = biological target: m^7GTP (mRNA cap structure); test: Fluorescence quenching of intrinsic tryptophan of eIF-4E upon m^7GTP binding
Protocol: FIGS. 4A and 4B. […] The fluorescence intensity of recombinant human eIF-4E binding to m^7GTP as a function of m^7GTP concentration was measured. All solutions were prepared in buffer A at pH 7.6, 25° C. and the concentration of eIF-4E was 1 μM. An excitation wave length of 280 nm was used to monitor the fluorescence intensity at 330 nm.
Fluorescence measurements were made at 25° C. on a SPEX Fluorolog-T2 spectrofluorometer equipped with a high intensity (450 w) xenon arc lamp. An excitation wave length of 280 nm was used to monitor the tryptophan fluorescence emission of recombinant eIF-4E at 330 nm. Excitation and emission slit widths of 1.4 and 2.0 mm respectively were used and a 1.0 cm sample cell pathlength was employed. The buffer used for all fluorescence measurements was 20 mM HEPES at pH 7.6 and 1 mM DTT (designated Buffer A in FIG. 4). The steady state data were collected and analyzed as described previously [Carberry, S. E. et al. (1989) Biochemistry 28:8078-8083; Carberry, S. E. et al. (1990) Biochemistry 29:3337-3341. An excitation wavelength of 289 nm was used to monitor the tryptophan fluorescence emission of the proteins. Excitation and emission slit widths of 1.5 mm and 2.0 mm respectively were used and cell path length was 1.0 cm.
The preparation of large quantities of recombinant eIF-4E variants allowed us to directly determine the Kd of binding to the mRNA cap structure. Quantitation was performed by measuring the fluorescence quenching of intrinsic tryptophan residues in eIF-4E upon m^7GTP binding at 25≅ C. (Example 3). […] This is possibly a consequence of a lower stability of these variants at the higher temperature in the fluorescence quenching assay.

[3] = assay type: physicochemical, E. coli
Protocol: Purification was carried out essentially as described by Hagedorn, et al. (1997) Protein Expression and Purif. 9:53-60, which is incorporated herein by reference. BL21(DE3) cells expressing human eIF-4E were grown in M9ZB media with ampicillin to an OD600 of 0.6-0.7 at which time cultures were induced with 0.4 mM IPTG [Studier, F. W. et al. (1990) supra]. […] Culture media was centrifuged at 500×g for 15 min, and E. coli pellets were suspended in 3 ml of 50 mM Tris-HCl pH 8.0, 100 mM KCl, 1 mM EDTA, 1 mM DTT, 1 mM PMSF, and 0.1 mg/ml lysozyme per gram wet weight. Samples were stirred intermittently on ice for 15 min and sonicated. Triton X-100 was added to a final concentration of 0.1%. The samples were mixed for 15 min at 4° C. and centrifuged at 15,000 rpm in a Sorvall SS-34 rotor for 20 min. Supernatants were used as starting material for subsequent chromatography purification steps.
In order to assess the solubility of each variant, cells were lysed and centrifuged as described supra. Supernatants prepared from equivalent wet weights of cells were analyzed by SDS-PAGE and Western blotting with anti-eIF-4E antibodies. Supernatants from all variants contained soluble eIF-4E. […] Except for the W113A and L117A variants, no major differences in solubility were observed among the other alanine variants studied.

T1 sequence (P06730 whole entry): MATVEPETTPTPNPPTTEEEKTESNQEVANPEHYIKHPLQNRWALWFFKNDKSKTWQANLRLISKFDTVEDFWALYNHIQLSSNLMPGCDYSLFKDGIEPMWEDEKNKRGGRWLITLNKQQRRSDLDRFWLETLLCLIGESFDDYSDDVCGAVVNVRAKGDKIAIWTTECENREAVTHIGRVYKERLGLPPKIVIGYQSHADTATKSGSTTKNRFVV

Q: Which “effect on eIF-4E-dependent translation” value ([1]; added to incubation containing wild-type eIF-4E) does the source give for `Cn1c[n+]([C@@H]2O[C@H](COP(=O)(O)OP(=O)([O-])O)[C@@H](O)[C@H]2O)c2nc(N)[nH]c(=O)c21` [m^7GDP, reference compound] here?
A: Its value is “inhibited the eIF-4E-dependent translation”.

Q: For `[N-]=[N+]=Nc1nc2c(=O)[nH]c(N)nc2n1C1OC(COP(=O)(O)OP(=O)(O)O[32P](=O)(O)O)C(O)C1O` (centres unmarked) [[γ-^32P] 8-N3GTP], which “binding of analog to eIF-4E” value (eIF-4E) is on record?
A: The value was “bind to eIF-4E in competition with m^7GTP and with capped RNA; also recorded: the binding site was saturated by the analog”.

Q: Which results are given for “wild-type eIF-4E: purified recombinant human eukaryotic Initiation Factor 4E expressed in E. coli, non-phosphorylated”?
A: Kd ([2]; Kd for m^7GTP, fluorescence quenching, 25 C, read-out: Binding constant Kd): 140 nM; equilibrium binding constant ([2]; binding to m^7GTP, pH 7.6 (20 mM HEPES buffer+1 mM DTT), 25° C.): 10.1±0.3 ×10^5M^−1; equilibrium binding constant relative to results obtained using native human eIF-4E ([2]; compared with Carberry 1989): 1.5-2 times higher; binding constant ([2]; in vitro, worded as binding to m^7G-RNA): 10.1±0.3 ×10^5M^−1; increase in the translation of globin mRNA ([1]; addition to eIF-4E-depleted lysate): 2-4 fold; fraction of eIF-4E expressed in E. coli that was soluble [3]: Note: Approximately 1-5% of the eIF-4E expressed in E. coli was soluble as estimated by Coomassie blue staining of SDS-PAGE analyzed samples.
